# Measurements published in article PMC9104950, “Stereoselective Covalent Adduct Formation of Acyl Glucuronide Metabolite of Nonsteroidal Anti-Inflammatory Drugs with UDP-Glucuronosyltransferase” (International Journal of Molecular Sciences, 2022).
# Assays:
# [1] = test system: proteins of Mit (mitochondrial fraction of liver homogenate); assay: Covalent adduct formation of NSAIDs-AG with proteins of mitochondrial fraction (Mit); type: binding, rat; settings: 180 μM, 1 mg/mL, 6 h
# [2] = test system: proteins of Cyt (cytosolic fraction of liver homogenate); assay: Covalent adduct formation of NSAIDs-AG with proteins of cytosolic fraction (Cyt); type: binding, rat; settings: 180 μM, 1 mg/mL, 6 h
# [3] = set-up: method as in PMID 1642643; settings: plasma at physiological pH and temperature; cited from earlier work
# UGT1A1 = target: T1, UGT1A1 (Homo sapiens, UniProt P22309); assay: Covalent adduct formation of NSAIDs-AG with UGT1A1; type: binding; settings: R vs S diastereomer; 180 μM, UGT 3.4 μM, 6 h
# T1 construct: purchased Corning, Inc
# T1 sequence (P22309 26-533): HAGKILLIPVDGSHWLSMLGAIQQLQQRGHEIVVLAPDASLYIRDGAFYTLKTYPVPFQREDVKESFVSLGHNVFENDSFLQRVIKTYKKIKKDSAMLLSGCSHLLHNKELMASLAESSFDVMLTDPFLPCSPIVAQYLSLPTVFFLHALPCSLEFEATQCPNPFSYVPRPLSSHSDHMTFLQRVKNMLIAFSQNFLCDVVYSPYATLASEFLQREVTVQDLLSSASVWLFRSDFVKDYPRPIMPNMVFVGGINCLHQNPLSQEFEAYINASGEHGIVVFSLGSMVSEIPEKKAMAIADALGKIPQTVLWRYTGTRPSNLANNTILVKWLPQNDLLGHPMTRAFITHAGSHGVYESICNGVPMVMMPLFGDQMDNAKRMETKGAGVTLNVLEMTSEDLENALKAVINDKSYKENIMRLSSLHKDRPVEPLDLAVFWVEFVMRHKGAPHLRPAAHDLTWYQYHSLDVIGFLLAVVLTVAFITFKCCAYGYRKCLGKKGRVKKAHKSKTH
# Experimental: The concentrations of UGT were set at 3.4 μM by the preliminary experiments on the linearity of covalent adduct formation. The covalent adduct formation of NSAIDs-AG with organelle proteins and UGT was determined according to previous reports on NSAIDs-AG with albumin with some modifications. After a deproteinization of the reaction mixture, methanol/diethyl ether (3:1) was added to the pellet. […] The concentrations of the parent NSAIDs were measured using liquid chromatography-tandem mass spectrometry (LC-MS/MS). Aliquots of 10 μL were injected into the LC-MS/MS system. The LC-MS/MS equipment consisted of an LC system (UltiMate 3000 series, Thermo Fisher Scientific, Inc.) and TSQ Endura Triple Quadrupole Mass Spectrometer with electrospray ionization (Thermo Fisher Scientific, Inc.). Finnigan Xcalibur software (Thermo Fisher Scientific, Inc.) was used for data recording and analysis. Analysis was further performed using a reversed-phase column (COSMOSIL 5C18-MSII, 2.0 mm × 150 mm, 5 μm; Nacalai Tesque, Inc.). The column temperature was set to 40 °C, and the autosampler was maintained at 10 °C. The mobile phase (A; 30% methanol in 8.5 mM ammonium formate and 0.0075% formic acid, and B; 90% methanol in 8.5 mM ammonium formate and 0.0075% formic acid) was pumped at a flow rate of 0.2 mL/min. The initial mobile phase composition was maintained at 30% mobile phase B for 1 min, changed linearly to 90% mobile phase B from 1 to 8 min, maintained for 1 min, returned to 30% mobile phase B from 9 to 10 min, and maintained for 1 min for chromatographic column equilibrium. The MS scan was operated in positive ionization mode for DIC, MEF, ZOM, KET, and NAP, or negative ionization mode, for FLU. […] The concentrations of NSAIDs were determined from a single-point calibration in every assay for NSAIDs after confirmation of linearity between area and concentrations of NSAIDs.
# [4] = set-up: method as in PMID 9571227; settings: cited from earlier work
# [5] = test system: proteins of Nuc (nuclear fraction of liver homogenate); assay: Covalent adduct formation of NSAIDs-AG with proteins of nuclear fraction (Nuc); type: binding, rat; settings: 180 μM, 1 mg/mL, 6 h
# UGT2B4 = target: T2, UGT2B4 (Homo sapiens, UniProt P06133); assay: Covalent adduct formation of NSAIDs-AG with UGT2B4; type: binding; settings: 180 μM, UGT 3.4 μM, 6 h
# T2 construct: purchased Corning, Inc
# T2 sequence (P06133 24-528): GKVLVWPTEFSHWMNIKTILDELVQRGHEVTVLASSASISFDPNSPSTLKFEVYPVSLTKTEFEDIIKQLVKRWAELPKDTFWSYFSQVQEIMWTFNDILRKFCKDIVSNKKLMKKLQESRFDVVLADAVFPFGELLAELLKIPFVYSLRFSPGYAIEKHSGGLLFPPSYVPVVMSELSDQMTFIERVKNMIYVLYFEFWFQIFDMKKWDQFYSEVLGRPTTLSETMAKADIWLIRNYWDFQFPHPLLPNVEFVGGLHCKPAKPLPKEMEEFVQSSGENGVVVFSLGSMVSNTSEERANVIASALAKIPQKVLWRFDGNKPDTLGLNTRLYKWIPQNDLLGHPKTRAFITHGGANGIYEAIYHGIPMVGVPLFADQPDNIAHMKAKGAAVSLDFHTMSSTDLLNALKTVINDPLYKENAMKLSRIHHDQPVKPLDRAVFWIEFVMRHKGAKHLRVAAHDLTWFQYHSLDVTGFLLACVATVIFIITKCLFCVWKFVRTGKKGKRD
# Experimental: (§1) The concentrations of UGT were set at 3.4 μM by the preliminary experiments on the linearity of covalent adduct formation. The covalent adduct formation of NSAIDs-AG with organelle proteins and UGT was determined according to previous reports on NSAIDs-AG with albumin with some modifications. After a deproteinization of the reaction mixture, methanol/diethyl ether (3:1) was added to the pellet. […] The concentrations of the parent NSAIDs were measured using liquid chromatography-tandem mass spectrometry (LC-MS/MS). Aliquots of 10 μL were injected into the LC-MS/MS system. The LC-MS/MS equipment consisted of an LC system (UltiMate 3000 series, Thermo Fisher Scientific, Inc.) and TSQ Endura Triple Quadrupole Mass Spectrometer with electrospray ionization (Thermo Fisher Scientific, Inc.). Finnigan Xcalibur software (Thermo Fisher Scientific, Inc.) was used for data recording and analysis. Analysis was further performed using a reversed-phase column (COSMOSIL 5C18-MSII, 2.0 mm × 150 mm, 5 μm; Nacalai Tesque, Inc.). The column temperature was set to 40 °C, and the autosampler was maintained at 10 °C. The mobile phase (A; 30% methanol in 8.5 mM ammonium formate and 0.0075% formic acid, and B; 90% methanol in 8.5 mM ammonium formate and 0.0075% formic acid) was pumped at a flow rate of 0.2 mL/min. The initial mobile phase composition was maintained at 30% mobile phase B for 1 min, changed linearly to 90% mobile phase B from 1 to 8 min, maintained for 1 min, returned to 30% mobile phase B from 9 to 10 min, and maintained for 1 min for chromatographic column equilibrium. The MS scan was operated in positive ionization mode for DIC, MEF, ZOM, KET, and NAP, or negative ionization mode, for FLU. The conditions for electrospray ionization were set at 3500 V spray voltage for positive ionization mode and 2500 V spray voltage for negative ionization mode at 400 °C capillary temperature, and 300 °C vaporizer temperature with 40 arbitrary units of nitrogen sheath gas and 10 arbitrary units of auxiliary gas. The MS scan was operated in the positive or negative ionization mode. The selected reaction monitoring (SRM) mode was used, with argon as the collision gas at 1.5 mTorr. The mass resolution was set at 0.7 full-width at half-height (unit resolution). SRM transitions (precursor and product ions) were mass to charge ratios of (m/z) 296 > 214 for DIC (positive ionization mode), 294 > 250 for DIC (negative ionization mode), 242 > 224 for MEF, 292 > 139 for ZOM, 243 > 198 for R- and S-FLU, 255 > 209 for R- and S-KET, 231 > 185 for R- and S-NAP, and 302 > 220 for DIC-d4. The collision energies were 15 V for DIC (negative ionization mode), ZOM, MEF, FLU, KET, and NAP; 35 V for DIC (positive ionization mode); and DIC-d4. The concentrations of NSAIDs were determined from a single-point calibration in every assay for NSAIDs after confirmation of linearity between area and concentrations of NSAIDs.
# UGT2B7 = target: T3, UGT2B7 (Homo sapiens, UniProt P16662); assay: Covalent adduct formation of NSAIDs-AG with UGT2B7; type: binding; settings: 180 μM, UGT 3.4 μM, 6 h
# T3 construct: purchased Corning, Inc
# T3 sequence (P16662 24-529): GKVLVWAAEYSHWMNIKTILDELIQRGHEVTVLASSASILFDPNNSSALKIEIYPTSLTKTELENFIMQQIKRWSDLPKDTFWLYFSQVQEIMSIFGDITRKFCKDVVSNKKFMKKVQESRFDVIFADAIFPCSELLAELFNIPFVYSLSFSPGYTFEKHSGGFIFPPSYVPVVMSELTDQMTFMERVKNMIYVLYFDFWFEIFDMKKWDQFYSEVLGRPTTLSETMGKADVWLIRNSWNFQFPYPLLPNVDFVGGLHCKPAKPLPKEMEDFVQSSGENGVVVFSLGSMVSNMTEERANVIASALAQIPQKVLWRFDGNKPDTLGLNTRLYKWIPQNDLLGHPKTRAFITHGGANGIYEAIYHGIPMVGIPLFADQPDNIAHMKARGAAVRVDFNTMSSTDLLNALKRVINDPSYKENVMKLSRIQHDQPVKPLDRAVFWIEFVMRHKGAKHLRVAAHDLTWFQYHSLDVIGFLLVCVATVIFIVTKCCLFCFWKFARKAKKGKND
# Experimental: as §1
structure (smiles),measurement,setting,value
CC(C(=O)OC1OC(C(=O)O)C(O)C(O)C1O)c1cccc(C(=O)c2ccccc2)c1 (stereo not shown) [R-KET-AG],amount of covalent adducts with Mit proteins compared with the other diastereomer (S-KET-AG),[1],higher amounts of covalent adducts
same,amount of covalent adducts with Cyt proteins compared with the other diastereomer (S-KET-AG),[2],higher amounts of covalent adducts
same,hydrolysis half-life in plasma compared with S-KET-AG,[3],shorter
same,covalent adduct formation with UGT1A1 compared with the other diastereomer,UGT1A1,significantly more covalent adducts
same,acyl migration rate compared with S-KET-AG,[4],higher acyl migration rate
same,amount of covalent adducts with Nuc proteins compared with the other diastereomer (S-KET-AG),[5],higher amounts of covalent adducts
same,amounts of covalent adducts with UGT2B (UGT2B4) relative to UGT1A isoforms,UGT2B4,relatively higher amounts of covalent adducts
same,covalent adduct formation with UGT2B4 compared with the other diastereomer,UGT2B4; R vs S diastereomer,significantly more covalent adducts
same,amounts of covalent adducts with UGT2B (UGT2B7) relative to UGT1A isoforms,UGT2B7,relatively higher amounts of covalent adducts
same,covalent adduct formation with UGT2B7 compared with the other diastereomer,UGT2B7; R vs S diastereomer,significantly more covalent adducts
